Publication PMC11434749, “In Vitro Interaction of Binuclear Copper Complexes with Liver Drug-Metabolizing Cytochromes P450” (Pharmaceuticals, 2024)

Key:
CYP2A6 = target: T1, CYP2A6 (Homo sapiens, UniProt P11509); experiment: Inhibition of CYP2A6 activity (coumarin 7-hydroxylation) in human liver microsomes; format: in vitro ADME; settings: HLM, coumarin 15 µmol·L^−1, preincubation 30 min at 37 °C, Mean ± S.D.
T1 construct: Pooled human liver microsomes were obtained from Biopredic (Rennes, France); tissue Biopredic (Rennes, France); host or cells: pooled human liver microsomes, seventeen donors
T1 sequence (P11509 1-494): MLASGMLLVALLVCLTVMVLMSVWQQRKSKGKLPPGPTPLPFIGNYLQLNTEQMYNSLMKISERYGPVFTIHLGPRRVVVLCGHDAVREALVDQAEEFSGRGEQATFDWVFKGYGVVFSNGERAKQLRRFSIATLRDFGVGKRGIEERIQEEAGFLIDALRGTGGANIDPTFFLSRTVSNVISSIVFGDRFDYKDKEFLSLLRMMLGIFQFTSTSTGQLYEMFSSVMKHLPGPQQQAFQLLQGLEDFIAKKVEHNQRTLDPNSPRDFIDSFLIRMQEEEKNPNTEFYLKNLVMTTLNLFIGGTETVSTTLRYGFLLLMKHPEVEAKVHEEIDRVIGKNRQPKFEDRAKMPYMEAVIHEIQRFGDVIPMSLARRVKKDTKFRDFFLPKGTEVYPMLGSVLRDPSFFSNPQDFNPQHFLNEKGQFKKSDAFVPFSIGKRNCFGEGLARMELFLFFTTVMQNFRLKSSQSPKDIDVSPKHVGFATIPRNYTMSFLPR
Method: (§1) The following enzyme assays were performed to determine the activities of specific CYP enzymes: CYP1A2, 7-ethoxyresorufin O-deethylation; CYP2A6, coumarin 7-hydroxylation; CYP2B6, 7-ethoxy-4-(trifluoromethyl) coumarin (EFC) O-deethylation; CYP2C8 paclitaxel 6α-hydroxylation; CYP2C9, diclofenac 4′-hydroxylation; CYP2C19, diazepam N-desmethylation; CYP2D6, bufuralol 1′-hydroxylation; CYP2E1, chlorzoxazone 6-hydroxylation; and CYP3A4/5, testosterone 6β-hydroxylation. […]
(§2) For the determination of metabolites formed from specific substrates, a Prominence LC-20A HPLC system (Shimadzu, Kyoto, Japan) with UV detection or fluorescence detection was used (see Table 2). […]
(§3) Initially, for each enzyme assay, a preliminary experiment was carried out to determine Km and Vmax to obtain the appropriate concentration of the specific substrates for the inhibition experiments (the substrate concentration was chosen in the range corresponding to the value of the Km for each particular reaction). Data were analyzed using the Sigma plot software, as mentioned above, with spectral studies. […] In all cases, the inhibition of individual CYP activities was evaluated by plotting the respective remaining activity against the inhibitor concentration.

CYP2C9 = target: T2, CYP2C9 (Homo sapiens, UniProt P11712); experiment: Inhibition of CYP2C9 activity (diclofenac 4′-hydroxylation) in human liver microsomes; format: in vitro ADME; settings: HLM, diclofenac 16 µmol·L^−1, preincubation 30 min at 37 °C, Mean ± S.D.
T2 construct: Pooled human liver microsomes were obtained from Biopredic (Rennes, France); tissue Biopredic (Rennes, France); host or cells: pooled human liver microsomes, seventeen donors
T2 sequence (P11712 whole entry): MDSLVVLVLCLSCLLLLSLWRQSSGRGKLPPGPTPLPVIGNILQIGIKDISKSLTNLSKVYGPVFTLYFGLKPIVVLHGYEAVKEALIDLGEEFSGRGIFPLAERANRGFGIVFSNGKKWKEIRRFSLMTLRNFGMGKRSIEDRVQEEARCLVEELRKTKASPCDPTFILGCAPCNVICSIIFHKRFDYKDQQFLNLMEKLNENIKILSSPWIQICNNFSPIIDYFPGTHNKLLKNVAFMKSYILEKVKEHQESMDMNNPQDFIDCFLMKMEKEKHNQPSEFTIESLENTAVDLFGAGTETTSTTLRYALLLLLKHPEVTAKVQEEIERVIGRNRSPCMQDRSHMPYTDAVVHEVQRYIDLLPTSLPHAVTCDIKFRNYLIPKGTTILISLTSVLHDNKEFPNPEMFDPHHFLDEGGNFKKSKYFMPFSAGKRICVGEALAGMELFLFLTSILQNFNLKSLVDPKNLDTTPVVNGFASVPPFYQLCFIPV
Method: as §1, §2, §3

HLM CYP enzymes = experiment: Spectral study (binding difference spectra) of the interaction with HLM CYP enzymes; set-up: species or system human; settings: for Kd: HLM, CYP 1 µmol·L^−1 in 50 mmol·L^−1 potassium phosphate buffer pH 7.4, absorbance change at about 417 nm, room temperature, read-out: spectroscopic binding constant (KS); for mode of binding to HLM CYP enzymes (difference spectra): maximum at about 380 nm, minimum at about 417 nm (Type I binding spectra)
From the text: Spectral studies in the Soret region were used to detect the substrate-induced difference spectra of human liver microsomal (HLM) CYPs. […] The spectral change corresponds to the formation of a maximum formed at about 380 nm and a minimum at about 417 nm (Figure 2). The values of the corresponding spectroscopic binding constant (KS) for the tested compounds were 39.50 ± 10.06 µmol·L^−1 and 44.86 ± 9.88 µmol·L^−1, respectively. These values indicate the relatively specific binding of these complexes on CYPs.
Figure 2 Spectral determination of the interaction between tested complexes No. 5 (a) and No. 6 (b) and CYP in HLM. […] The concentration of CYP in microsomal preparation, 1 µmol·L^−1 in 50 mmol·L^−1 potassium phosphate buffer (pH 7.4).
The binding difference spectra of the interactions of complex No. 5 and complex No. 6 with microsomal CYP enzymes were followed according to established procedures. The cuvette contained HLM that was diluted to a final concentration of CYP 1 µmol·L^−1 in 50 mmol·L^−1 potassium phosphate buffer (pH 7.4). The tested compounds were dissolved in the same buffer, and the concentration ranges in experiments were 0–183 µmol·L^−1, obtained by diluting a 5 mmol·L^−1 stock solution. Spectra were recorded at room temperature by repetitive scanning between 300 and 700 nm at a scan speed of 200 nm/s. The baseline of the reference cuvette contained HLM diluted to the final concentration of CYP 1 µmol·L^−1 in 50 mmol·L^−1 potassium buffer (pH 7.4). Spectra were recorded on a Varian 4000 UV/VIS spectrophotometer (Varian, Palo Alto, CA, USA). The absorbance change at about 417 nm was plotted against the concentration of the tested compounds. Data were analyzed using the Sigma Plot v. 8.0 graphing software (Jandel Scientific, Chicago, IL, USA).

S. aureus = test system: S. aureus; set-up: method as in doi:10.1016/j.ica.2022.121273; settings: Gram-positive; cited from earlier work

Row | SMILES | IC50 (CYP2A6) | IC50 (CYP2C9) | Kd (HLM CYP enzymes) | mode of binding to HLM CYP enzymes (difference spectra) (HLM CYP enzymes) | MIC S. aureus (S. aureus)
1 | CN(C)CCN(C)CCN(C)C.CN(C)CCN(C)CCN(C)C.O.O.O=C([O-])/C=C/C(=O)[O-].[Cu+2].[Cu+2].[O-][Cl+3]([O-])([O-])[O-].[O-][Cl+3]([O-])([O-])[O-] [Complex No. 5, [Cu2(μ-fu)(pmdien)2(H2O)2](ClO4)2] | 24.9 ± 0.25 µM | 12.59 ± 0.06 µM | 39.5 ± 10.1 µM | bind to HLM CYP enzymes as substrates | 1.05 µg/mL
2 | CN(C)CCN(C)CCN(C)C.CN(C)CCN(C)CCN(C)C.O.O.O=C([O-])CCSSCCC(=O)[O-].[Cu+2].[Cu+2].[O-][Cl+3]([O-])([O-])[O-].[O-][Cl+3]([O-])([O-])[O-] [Complex No. 6, [Cu2(μ-dtdp)(pmdien)2(H2O)2](ClO4)2] | 25.13 ± 0.13 µM | 12.26 ± 0.11 µM | 44.9 ± 9.88 µM | bind to HLM CYP enzymes as substrates | 8.44 µg/mL
